ChEMBL document CHEMBL1140538, “Pyrazolo[1,5-a]pyrimidines as orally available inhibitors of cyclin-dependent kinase 2” (Bioorg Med Chem Lett, 2007)
“And” between values parts separate entries of the source, which are not always exact repeats. Equal values may be shown once.

Tests used:
[1] = Inhibition of human CDK2/cyclin A
[2] = Effect on cell proliferation assessed as radiolabeled thymidine incorporation in cell-based assay; assay type: functional; details: Homo sapiens
[3] = target: Glycogen synthase kinase-3 beta (Homo sapiens, UniProt P49841); assay: Inhibition of human GSK3-beta
Chain of Glycogen synthase kinase-3 beta (P49841 whole entry): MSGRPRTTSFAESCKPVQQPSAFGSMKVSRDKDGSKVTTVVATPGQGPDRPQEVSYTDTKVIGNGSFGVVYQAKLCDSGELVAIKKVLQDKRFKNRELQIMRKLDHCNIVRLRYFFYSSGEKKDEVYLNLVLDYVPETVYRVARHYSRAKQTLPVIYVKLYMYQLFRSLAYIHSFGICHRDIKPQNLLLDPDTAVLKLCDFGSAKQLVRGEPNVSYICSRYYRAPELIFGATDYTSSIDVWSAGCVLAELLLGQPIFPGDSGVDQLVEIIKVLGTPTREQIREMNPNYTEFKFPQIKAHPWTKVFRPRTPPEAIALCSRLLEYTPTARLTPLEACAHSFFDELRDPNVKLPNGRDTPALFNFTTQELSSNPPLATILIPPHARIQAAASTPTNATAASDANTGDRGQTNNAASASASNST

[4] = Inhibition of human MAPK
[5] = Tmax in rat at 10 mg/kg; assay type: ADME, organism-based; parameters: dose 10 mg/kg; details: in vivo
[6] = test system: A2780; assay: Antitumor activity against A2780 cells xenografted in mouse at 40 mg/kg, po QD for 10 days; assay type: functional; details: A2780, 240 h
[7] = Cmax in rat at 10 mg/kg; assay type: ADME, organism-based; parameters: dose 10 mg/kg; details: in vivo
[8] = Cmax in mouse at 40 mg/kg; assay type: ADME, organism-based; parameters: dose 40 mg/kg; details: in vivo
[9] = AUC in mouse at 40 mg/kg; assay type: ADME, organism-based; parameters: dose 40 mg/kg; details: plasma
[10] = organism: Rattus norvegicus; assay: Protein binding in rat; assay type: ADME, organism-based; details: in vivo
[11] = organism: Canis familiaris; assay: Protein binding in dog; assay type: ADME, organism-based, Canis lupus familiaris; details: in vivo
[12] = AUC in monkey at 10 mg/kg; assay type: ADME, organism-based, Macaca mulatta; parameters: dose 10 mg/kg; details: rhesus monkey, plasma
[13] = AUC in dog at 5 mg/kg; assay type: ADME, organism-based, Canis lupus familiaris; parameters: dose 5 mg/kg; details: plasma
[14] = Cmax in monkey at 10 mg/kg; assay type: ADME, organism-based, Macaca mulatta; parameters: dose 10 mg/kg; details: rhesus monkey, in vivo
[15] = Tmax in mouse at 40 mg/kg; assay type: ADME, organism-based; parameters: dose 40 mg/kg; details: in vivo
[16] = AUC in rat at 10 mg/kg; assay type: ADME, organism-based; parameters: dose 10 mg/kg; details: plasma
[17] = organism: Homo sapiens; assay: Protein binding in human; assay type: ADME, organism-based; details: in vivo
[18] = Cmax in dog at 5 mg/kg, po; assay type: ADME, organism-based, Canis lupus familiaris; parameters: dose 5 mg/kg, route oral; details: in vivo
[19] = Tmax in monkey at 10 mg/kg; assay type: ADME, organism-based, Macaca mulatta; parameters: dose 10 mg/kg; details: rhesus monkey, in vivo
[20] = test system: Rhesus monkey; assay: Protein binding in monkey; assay type: ADME, organism-based, Macaca mulatta; details: in vivo
[21] = organism: Mus musculus; assay: Protein binding in mouse; assay type: ADME, organism-based; details: in vivo

| IC50 [1] | IC50 [3] [nM] | Compound | IC50 [2] [nM] | other results |
| --- | --- | --- | --- | --- |
| 35 nM | 1410 | COc1cc(NCc2cccnc2)n2ncc(Br)c2n1 | 2000 | – |
| 1100 nM | – | COc1cnn2c(NCc3cccnc3)cc(-c3ccccc3)nc12 | – | – |
| 7 nM | 1800 | CSc1cnn2c(NCc3cccnc3)cc(-c3ccccc3)nc12 | – | IC50 [4]: 900 nM |
| 350 nM | 450 | CS(=O)(=O)c1ccc(Nc2cc(-c3ccccc3Cl)nc3c(Br)cnn23)cc1 | 900 | – |
| 3000 nM | – | CC(Nc1cc(-c2ccccc2)nc2c(Br)cnn12)c1cccnc1 (stereo unspecified) | – | – |
| 8 nM | 310 | Brc1cnn2c(NCc3cccnc3)cc(-c3ccco3)nc12 | 15200 | – |
| 38 nM | 1180 | CSc1cc(NCc2cccnc2)n2ncc(Br)c2n1 | 990 | – |
| 95 nM | – | FC(F)(F)c1cnn2c(NCc3cccnc3)cc(-c3ccccc3)nc12 | – | – |
| > 50000 nM | – | c1ccc(-c2cc(NCc3cccnc3)n3ncc(-c4ccccc4)c3n2)cc1 | – | – |
| 300 nM | 15200 | Fc1ccccc1-c1cc(NCc2ccccc2)n2ncc(Br)c2n1 | – | – |
| 11 nM | 35 | Clc1ccccc1-c1cc(NCOc2cccnc2)n2ncc(Br)c2n1 | 170 | – |
| 710 nM | – | FC(F)(F)Cc1cnn2c(NCc3cccnc3)cc(-c3ccccc3)nc12 | – | – |
| 71 nM | – | c1ccc(-c2cc(NCc3cccnc3)n3ncc(C4CC4)c3n2)cc1 | – | – |
| 16 nM | 410 | Brc1cnn2c(NCc3cccnc3)cc(C3CCNCC3)nc12 | 160 | – |
| 38 nM | 500 | CC(O)c1cc(NCc2cccnc2)n2ncc(Br)c2n1 (stereo unspecified) | 1400 | – |
| 72 nM | – | Cc1cnn2c(NCc3cccnc3)cc(-c3ccccc3)nc12 | – | IC50 [4]: 1400 nM |
| 2 nM | 34 | CC(=O)NCCSc1cnn2c(NCc3cccnc3)cc(-c3ccccc3)nc12 | – | IC50 [4]: 12000 nM |
| 500 nM | – | Clc1cccc(-c2cc(NCc3ccncc3)n3nccc3n2)c1Cl | – | – |
| 16000 nM | – | c1ccc(Cc2cnn3c(NCc4cccnc4)cc(-c4ccccc4)nc23)cc1 | – | – |
| 90 nM | – | C=Cc1cnn2c(NCc3cccnc3)cc(-c3ccccc3)nc12 | – | – |
| 4 nM and 3 nM | 54 | Clc1ccccc1-c1cc(NCc2cccnc2)n2ncc(Br)c2n1 | 500 | – |
| 8 nM | 2800 | CCc1cnn2c(NCc3cccnc3)cc(-c3ccccc3)nc12 | – | IC50 [4]: 2000 nM |
| 408 nM | 13300 | Fc1ccccc1-c1cc(Nc2ccccc2)n2ncc(Br)c2n1 | – | – |
| 48 nM | 9820 | C#Cc1cnn2c(NCc3cccnc3)cc(-c3ccccc3)nc12 | – | IC50 [4]: 7480 nM |
| > 50000 nM | – | CC(=O)c1cnn2c(NCc3cccnc3)cc(-c3ccccc3)nc12 | – | – |
| 60 nM | 3530 | Cc1cc(NCc2cccnc2)n2ncc(Br)c2n1 | 1800 | – |
| 840 nM | – | C#CCc1cnn2c(NCc3cccnc3)cc(-c3ccccc3)nc12 | – | – |

| IC50 [1] | IC50 [3] [nM] | Compound | IC50 [2] [nM] | other results |
| --- | --- | --- | --- | --- |
| 250 nM | – | c1ccc(-c2cc(NCc3cccnc3)n3nccc3n2)cc1 | – | – |
| 89 nM | 790 | CCOC(=O)c1cc(NCc2cccnc2)n2ncc(Br)c2n1 | 2900 | – |
| 20 nM | 247 | CNc1cc(-c2ccccc2Cl)nc2c(Br)cnn12 | 1800 | – |
| 17 nM | 420 | CC(C)c1cc(NCc2cccnc2)n2ncc(Br)c2n1 | 950 | – |
| 8 nM | 180 | Brc1cnn2c(NCc3cccnc3)cc(C3CCCNC3)nc12 (stereo unspecified) | 60 | – |
| 4 nM | 27 | Brc1cnn2c(NCc3cccnc3)cc(C3CCCCC3)nc12 | 200 | – |
| 18 nM | 920 | CCc1cc(NCc2cccnc2)n2ncc(Br)c2n1 | 520 | – |
| 13 nM | 480 | Brc1cnn2c(NCc3cccnc3)cc(-c3cccs3)nc12 | 750 | – |
| 34000 nM | – | CN(C)Cc1cnn2c(NCc3cccnc3)cc(-c3ccccc3)nc12 | – | – |
| 163 nM | – | CCCNc1cc(-c2ccccc2Cl)nc2c(Br)cnn12 | – | – |
| 11 nM | 570 | Brc1cnn2c(NCc3cccnc3)cc(-c3ccccc3)nc12 | – | IC50 [4]: 370 nM |
| 250 nM | – | Nc1cc(-c2ccccc2)nc2c(Br)cnn12 | – | – |
| 3400 nM | – | OC(c1cnn2c(NCc3cccnc3)cc(-c3ccccc3)nc12)C(F)(F)F (stereo unspecified) | – | – |
| 890 nM | – | CCCc1cnn2c(NCc3cccnc3)cc(-c3ccccc3)nc12 | – | – |
| 34 nM | 600 | Brc1cnn2c(NCOc3cccnc3)cc(-c3ccccc3)nc12 | 140 | – |
| 210 nM | – | Brc1cnn2c(NCc3cccnc3)cc(N3CCNCC3)nc12 | – | – |
| 43 nM | 4600 | CNc1cc(NCc2cccnc2)n2ncc(Br)c2n1 | 1200 | – |
| 45 nM | 1130 | Brc1cnn2c(NCc3cccnc3)cc(C3CC3)nc12 | 1500 | – |
| 30 nM | – | OCCSc1cnn2c(NCc3cccnc3)cc(-c3ccccc3)nc12 | – | – |
| 2170 nM | – | OCc1cnn2c(NCc3cccnc3)cc(-c3ccccc3)nc12 | – | – |
| 1200 nM | – | CCCCc1cnn2c(NCc3cccnc3)cc(-c3ccccc3)nc12 | – | – |
| 13 nM | 130 | Fc1ccccc1-c1cc(NCOc2cccnc2)n2ncc(Br)c2n1 | 210 | Tmax [5]: 2 h; inhibition in vivo at 40 mg/kg [6]: 96%; Cmax [7]: 2290 nM; Cmax [8]: 6810 nM; AUC [9]: 17.9 µM·h; Activity [10]: 85%; Activity [11]: 93%; AUC [12]: 43 µM·h; AUC [13]: 2.44 µM·h; Cmax [14]: 3200 nM; Tmax [15]: 2 h; AUC [16]: 16.4 µM·h; Activity [17]: 95%; Cmax [18]: 2580 nM; Tmax [19]: 3.3 h; Activity [20]: 89%; Activity [21]: 90% |
| > 50000 nM | – | O=[N+]([O-])c1cnn2c(NCc3cccnc3)cc(-c3ccccc3)nc12 | – | – |
| 825 nM | – | Clc1ccccc1-c1cc(NC2CC2)n2ncc(Br)c2n1 | – | – |
| 370 nM | – | CC(C)c1cnn2c(NCc3cccnc3)cc(-c3ccccc3)nc12 | – | – |
| 49 nM | – | Cc1ccccc1-c1cc(NCc2ccc[n+]([O-])c2)n2ncc(Br)c2n1 | – | – |
| 49 nM | 1100 | N#CCc1cnn2c(NCc3cccnc3)cc(-c3ccccc3)nc12 | – | IC50 [4]: 1330 nM |
